According to patent US7923465B2, “Cannabinoid receptor ligands, pharmaceutical compositions containing them, and process for their preparation” (priority 2005, dated 2011):
Where two headings read alike, the source gives them in different places.

Legend:
hCB1 = hCB1 (Homo sapiens, UniProt P21554); experiment: In vitro binding assay using hCB1-CHO membranes, [3H]-CP-55,940 displacement (Protocol II); set-up: expressed in transfected cells; host or cells: CHO (hCB1-CHO, generated in-house)
Description: II. Protocol for In Vitro Assay Using hCB1-CHO Membranes
The reaction was set up in a total volume of 200 μl in PEI (Poly(ethyleneimine)) (0.2%) precoated Millipore GFB (Glass Fibre-B) filter plates. 1 mM stocks of test compounds were prepared in DMSO and tested at a final concentration of 300 nM. The non-specific binding was determined by 0.5 μM CP-55, 940. […] The assay mixture (with or without the test compound) was incubated at 37° C. for 1 hour. The reaction was stopped by rapid filtration under vacuum and the radioactivity on the filters was measured by liquid scintillation counting.

CB1 [1] = target: T1, CB1 (Rattus norvegicus, UniProt P20272); experiment: Rat CB1 receptor binding using brain membrane, [3H]SR141716A displacement (Protocol I); set-up: CB1 receptor present in a rat brain membrane preparation; from tissue; host or cells: rat brain membrane; inhibition: dose or concentration left out as unconfirmed; conditions: 1 h
T1 sequence (P20272 whole entry): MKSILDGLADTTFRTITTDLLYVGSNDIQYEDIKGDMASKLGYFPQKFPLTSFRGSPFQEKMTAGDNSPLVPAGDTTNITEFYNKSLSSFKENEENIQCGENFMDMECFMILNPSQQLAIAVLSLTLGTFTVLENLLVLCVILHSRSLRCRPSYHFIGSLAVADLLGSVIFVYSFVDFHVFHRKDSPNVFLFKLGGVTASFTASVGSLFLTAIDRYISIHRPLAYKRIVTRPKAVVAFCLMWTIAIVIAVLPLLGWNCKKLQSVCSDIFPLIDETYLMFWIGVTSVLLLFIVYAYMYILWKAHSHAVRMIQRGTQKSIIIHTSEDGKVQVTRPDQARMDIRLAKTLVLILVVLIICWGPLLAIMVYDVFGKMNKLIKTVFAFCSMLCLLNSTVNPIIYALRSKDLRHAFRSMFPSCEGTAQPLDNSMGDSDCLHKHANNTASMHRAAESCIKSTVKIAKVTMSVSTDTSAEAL

CB1 [2] = target: T1, CB1; experiment: GTPγS binding assay, CB1 functional assay in rat cerebellar membrane (Protocol VIII); format: biochemical; set-up: 10 μg rat cerebellum membrane; from tissue; host or cells: rat cerebellum membrane, prepared in-house
Description: VIII. Protocol for GTPγS Binding Assay (CB1 Functional Assay in Rat Cerebellar Membrane)
In this GTPγS binding assay, total, basal and nonspecific binding were determined. See Griffin G., Atkinson P. J., Showalter V. M., Martin B. R. and Abood M. E., “Evaluation of cannabinoid receptor agonists and antagonists using the Guanosine-5′-O-(3-(^35S)thio)-triphosphate binding assay in rat cerebellar membranes,” J Pharmacol Exp Ther 285: 553-560, 1998. Three wells for total binding, three wells for basal binding, and three wells for nonspecific binding at 0.2 nM concentration of radioligand were used. Basal binding was defined by 50 μM GDP (Guanosine diphosphate) and non-specific binding was defined by 10 μM unlabeled GTPγS. 10 μg rat cerebellum membrane, 50 μM of GDP, WIN-55212-2 or test compound (1 μM or 300 nM), 10 μM unlabeled GTPγs, and 0.2 nM of [^35S]GTPγS were added into a 96 well plate and the final volume of the reaction mixture was made with GTPγS buffer (50 mM Tris, 3 mM anhydrous MgCl2, 0.2 mM EGTA and 100 mM NaCl pH 7.4) to 200 μl. The plates were incubated at 30° C. for 1 hour. Then the reaction was stopped by filtration using a Whatman GF/B-96 microfilter plate. Three washings were given using Tris-HCl. The radioactivity bound to the brain membrane was retained on the filter disks to which scintillation fluid was added (Microscint PS). Then plates were read for radioactive counts using a Beta Liquid Scintillation Counter (Packard Instruments, Ill., USA).
The rat cerebellar brain membrane was prepared as follow: • 1. Sacrifice the rat and take out the whole brain and separate cerebellum as fast as possible and keep it on ice. • 2. Take the weight of the cerebellum and homogenize in 30 ml of homogenizing buffer (50 mM Tris-HCL containing 1 mM EDTA and 5% sucrose, pH 7.5) using homogenizer in cold condition. • 3. Centrifuge the homogenized cerebellum at 18000 rpm (38000 g) for 15 min at 4° C. • 4. Resuspend the pellet in 5 ml 50 mM Tris-HCL containing 1 mM EDTA and keep it on ice for 30 min. • 5. Pass the membrane through insulin syringe to ensure uniform suspension. • 6. Centrifuge the membrane at 18000 rpm at 4° C. for 20 min. • 7. Reconstitute the pellet in 3 ml of GTPγS buffer and estimate the protein by BCA assay and store the membrane in aliquots of 1000 μg of protein. CB1 Agonist and Antagonist Activity Screening Assay
The test compounds were screened at a final concentration of 1 μM or 300 nM in the absence and presence of 1 μM of WIN 55, 212-2 in the same manner as described in the GTPγS binding assay.
An agonist will stimulate the GTPγS binding over the basal.
An inverse agonist will decrease the basal GTPγS binding and/or produce more than 100% inhibition of the agonist (WIN-55212-2) induced stimulation.
The percent stimulation of GTPγS binding by each test compound at 1 μM or 300 nM concentration in the absence and presence of 1 μM WIN 55, 212-2 was calculated by comparing it with basal specific bound (Basal binding—Non Specific binding) values.

hCB2 = hCB2 (Homo sapiens, UniProt P34972); experiment: In vitro binding assay using hCB2-CHO membranes, [3H]-CP-55,940 displacement (Protocol IV); set-up: expressed in transfected cells; host or cells: CHO (hCB2-CHO, generated in-house); conditions: 1 h, read-out: % Displacement Protocol IV
hCB2, sequence (P34972 whole entry): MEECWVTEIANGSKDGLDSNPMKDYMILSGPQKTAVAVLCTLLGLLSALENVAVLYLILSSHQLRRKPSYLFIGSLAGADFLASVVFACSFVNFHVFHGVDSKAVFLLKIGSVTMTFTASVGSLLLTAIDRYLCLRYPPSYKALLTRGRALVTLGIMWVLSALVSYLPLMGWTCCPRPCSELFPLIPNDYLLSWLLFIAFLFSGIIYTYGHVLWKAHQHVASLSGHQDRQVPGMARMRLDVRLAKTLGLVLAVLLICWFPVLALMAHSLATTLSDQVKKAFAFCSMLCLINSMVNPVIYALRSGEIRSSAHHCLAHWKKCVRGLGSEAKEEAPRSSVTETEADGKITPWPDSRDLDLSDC
In short: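 Compounds were tested at a single 300 nM final concentration for displacing 0.75 nM [3H]-CP-55,940 from hCB2-CHO membranes (1 h, 30 °C, 50 mM Tris pH 7.4, 5 mM MgCl2, 1 mM EDTA, 0.1% BSA). Filter-bound radioactivity was counted, with 0.5 μM unlabelled CP-55,940 for nonspecific binding; results are % displacement.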

[3] = rat brain membrane, [3H]SR141716A displacement, read-out: % Displacement Protocol I
[4] = hCB2-CHO membranes, [3H]-CP-55,940 displacement
[5] = 1 h, GTPγS binding over basal, rat cerebellar membrane, tested at 1 uM, read-out: Per Se % Stimulation
[6] = GTPγS binding, tested at 1 uM in presence of 1 μM WIN 55,212-2, read-out: % Inhibition of WIN-55212-2 induced stimulation
[7] = read-out: % Displacement Protocol I, rat brain membrane, [3H]SR141716A displacement

hCB1, sequence (P21554 whole entry): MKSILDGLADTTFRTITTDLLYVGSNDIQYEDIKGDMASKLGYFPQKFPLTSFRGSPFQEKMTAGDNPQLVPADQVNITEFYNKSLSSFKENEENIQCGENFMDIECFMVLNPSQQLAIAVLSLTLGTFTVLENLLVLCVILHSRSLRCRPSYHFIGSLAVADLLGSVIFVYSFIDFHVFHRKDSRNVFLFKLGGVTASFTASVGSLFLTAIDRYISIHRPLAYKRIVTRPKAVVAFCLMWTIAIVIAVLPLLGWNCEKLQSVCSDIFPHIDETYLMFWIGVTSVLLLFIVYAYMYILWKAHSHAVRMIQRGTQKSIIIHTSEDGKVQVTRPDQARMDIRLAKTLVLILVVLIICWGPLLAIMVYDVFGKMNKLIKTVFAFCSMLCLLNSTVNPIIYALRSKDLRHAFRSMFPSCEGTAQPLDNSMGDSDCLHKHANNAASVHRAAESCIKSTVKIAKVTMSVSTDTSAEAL

Row | SMILES | inhibition (CB1 [1]; [3]) [%] | melting point [°C] | inhibition at 0.3 µM (hCB2; [4]) [%] | activation at 1 µM (CB1 [2]; [5]) [%] | inhibition at 1 µM (CB1 [2]; [6]) [%] | other results
1 | O=C(Nc1cccc(Cl)c1)c1nn(-c2ccc(Cl)cc2)c2c1C1CCC2C1 (stereo not drawn) [Example 215, N(3)-(3-Chorophenyl)-1-(4-chlorophenyl)-4,5,6,7-tetrahydro-1H-4,7-methano-indazole-3-carboxamide] |  |  |  |  |  | % Displacement Protocol II (hCB1): 1.38%
2 | O=C(NNc1ccccc1)c1nn(-c2ccc(Cl)cc2)c2c1C1CC3CC(C1)CC2C3 [Example 121, N(7)-(N′-phenylamino)-5-(4-chlorophenyl)-5,6-diazatetracyclo[7.3.1.1^3,11.0^4,8]tetradeca-4(8),6-diene-7-carboxamide] | 65.4 | 103 to 105 | 29.8 |  |  | Per Se % Stimulation (CB1 [2]; GTPγS binding over basal, rat cerebellar membrane, tested at 1 uM): 16.0%; % Inhibition of WIN-55212-2 induced stimulation (CB1 [2]; GTPγS binding, tested at 1 uM in presence of 1 μM WIN 55,212-2): 81.3%
3 | O=C(NCc1ccc(F)cc1)c1nn(-c2ccc(Cl)cc2Cl)c2c1C1CC3CC(C1)CC2C3 [Example 172, N(7)-(4-Fluorobenzyl)-5-(2,4-dichlorophenyl)-5,6-diazatetracyclo[7.3.1.1^3,11.0^4,8]tetradeca-4(8),6-diene-7-carboxamide] | 59.2 | 68 to 70 | 25.1 | -18.3 | 115 | 
4 | O=C(NNc1ccccc1Cl)c1nn(-c2ccc(F)cc2F)c2c1C1CCC2C1 (stereo not drawn) [Example 286, N(3)-[(2-Chlorophenyl)amino]-1-(2,4-difluorophenyl)-4,5,6,7-tetrahydro-H-4,7-methano-indazole-3-carboxamide] |  |  |  |  |  | % Displacement Protocol II (hCB1): 32.35%
5 | Cc1ccc(-n2nc(C(=O)NCc3ccccc3Cl)c3c2C2CC4CC(CC3C4)C2)cc1 [Example 162, N(7)-(2-Chlorobenzyl)-5-(4-methylphenyl)-5,6-diazatetracyclo[7.3.1.1^3,11.0^4,8]tetradeca-4(8),6-diene-7-carboxamide] | 38.9 | 127 to 130 | 33.8 |  |  | activation at 0.3 µM (CB1 [2]; 1 h, GTPγS binding over basal, rat cerebellar membrane, tested at 300 nM, read-out: Per Se % Stimulation): -29.2%; inhibition at 0.3 µM (CB1 [2]; GTPγS binding, tested at 300 nM in presence of 1 μM WIN 55,212-2, read-out: % Inhibition of WIN-55212-2 induced stimulation): 72%
6 | O=C(NNc1ccc(F)cc1F)c1nn(-c2ccc(Cl)cc2)c2c1C1CC3CC(C1)CC2C3 [Example 132, N(7)-(2,4-Difluorophenylamino]-5-(4-chlorophenyl)-5,6-diazatetracyclo[7.3.1.1^3,11.0^4,8]tetradeca-4(8),6-diene-7-carboxamide] | 64.5 | 195 to 196 | 3.94 | 7.2 | 89.2 | 
7 | C[C@H](NC(=O)c1n[nH]c2c1C1(c3ccc(F)cc3F)CCC2C1)c1ccccc1 (stereo partly drawn) [Example 292, N(3)-[S-(1-Phenylethyl)]-4-(2,4-difluorophenyl)-4,5,6,7-tetrahydro-1H-4,7-methano-indazole-3-carboxamide] |  |  |  |  |  | % Displacement Protocol II (hCB1): 69.79%
8 | O=C(NNc1ccccc1Cl)c1nn(-c2ccc(Cl)cc2)c2c1C1CC3CC(C1)CC2C3 [Example 123, N(7)-(2-Chlorophenylamino)-5-(4-chlorophenyl)-5,6-diazatetracyclo[7.3.1.1^3,11.0^4,8]tetradeca-4(8),6-diene-7-carboxamide] | 89 | 155 | 47.6 | 13.5 | 99.1 | 
9 | Cl.O=C(NNc1ccc(F)cc1)c1nn(-c2ccc(Cl)cc2)c2c1C1CC3CC(C1)CC2C3 [Example 131, N(7)-(4-Fluorophenylamino)-5-(4-chlorophenyl)-5,6-diazatetracyclo[7.3.1.1^3,11.0^4,8]tetradeca-4(8),6-diene-7-carboxamide hydrochloride] |  | 175 |  | -1.7 | 86 | inhibition (CB1 [1]; [7]): 85.2%; inhibition at 0.3 µM (hCB2): 10.8%
10 | O=C(NNc1ccccc1Cl)c1nn(-c2ccc(Cl)cc2Cl)c2c1C1CC3CC(C1)CC2C3 [Example 174, N(7)-(2-Chlorophenylamino)-5-(2,4-dichlorophenyl)-5,6-diazatetracyclo[7.3.1.1^3,11.0^4,8]tetradeca-4(8),6-diene-7-carboxamide] | 76.4 | 110 | 22.5 | -20.8 | 75.5 | 
11 | O=C(NCCc1ccccc1)c1nn(-c2ccc(Cl)cc2Cl)c2c1C1CC3CC(C1)CC2C3 [Example 178, N(7)-(2-Phenylethyl)-5-(2,4-dichlorophenyl)-5,6-diazatetracyclo[7.3.1.1^3,11.0^4,8]tetradeca-4(8),6-diene-7-carboxamide] | 47 | 63 to 66 | 6.04 | -0.7 | 88 | 
12 | O=C(NNc1cccc(F)c1)c1nn(-c2ccc(Cl)cc2)c2c1C1CCC2C1 (stereo not drawn) [Example 233, N(3)-[(3-Fluorophenyl)amino]-1-(4-chlorophenyl)-4,5,6,7-tetrahydro-1H-4,7-methano-indazole-3-carboxamide] | 73.2 | 199 | 46.2 | -16.3 | 79.5 | 
13 | O=C(NC1CCCCC1)c1nn(-c2ccc(F)cc2F)c2c1C1CCC2C1 (stereo not drawn) [Example 290, N(3)-Cyclohexyl-1-(2,4-difluorophenyl)-4,5,6,7-tetrahydro-1H-4,7-methano-indazole-3-carboxamide] |  | 119 |  | 3.8 | 35.3 | inhibition (CB1 [1]; [7]): 80.3%
14 | O=C(NCc1ccc(F)cc1)c1nn(-c2ccc(Cl)cc2Cl)c2c1C1CCC2C1 (stereo not drawn) [Example 246, N(3)-(4-Fluorobenzyl)-1-(2,4-dichlorophenyl)-4,5,6,7-tetrahydro-1H-4,7-methano-indazole-3-carboxamide] | 46 | 106 to 108 | 30.4 | 0.7 | 98.9 | 
